In brackets after ≈: the same amount, converted by molar mass.
Key:
[1] = test system: Friend-Leukemia virus; assay: Inhibition of retrovirus-induced splenomegaly in Friend-Leukemia virus infected mice (Table 9); assay type: in vivo
Procedure: Mice were infected I.P. with Friend-Leukemia virus and not treated or treated I.P. with daily doses of phospholipid. After 14 days infection and treatment, the mice were sacrificed, the spleens were removed and weighed to determine the percentage, of control splenomegaly. […] Even a single dose of 25 mg/kg CP-51 inhibited splenomegaly by 36%.

[2] = test system: mouse precursor erythrocyte (CFU-E); assay: Cytotoxicity: inhibition of mouse precursor erythrocyte (CFU-E) colony formation; assay type: cell-based
Procedure: CP-51 and AZT were assayed for cytotoxicity by inhibition of mouse precursor erythrocyte (CFU-E) and granulocyte/macrophage (CFU-GM) cell colony formation.

SMILES: CCCCCCCCCCCCCCCCCC(=O)NCC(COP(=O)([O-])OCC[N+](C)(C)C)OCC (racemic) [CP-51, rac-3-octadecanamido-2-ethyoxy-1-propylphosphocholine]
- inhibition of retrovirus-induced splenomegaly ([1]; 12.5 mg/kg/day intraperitoneally): 43%
- % of Control Splenomegaly ([1]; 12.5 mg/kg/day, daily treatment): 43 % of Control
- % of Control Splenomegaly ([1]; 25 mg/kg, one treatment): 36 % of Control
- anti-retrovirus activity in infected animals ([1]; in words): has anti-retrovirus activity in infected animals
- inhibition of retrovirus-induced splenomegaly ([1]; single dose of 25 mg/kg): 36%
- cytotoxicity relative to AZT ([2]; CFU-E and CFU-GM, in words): significantly less cytotoxic than AZT
- IC50 ([2]; Mus musculus, Erythrocyte, read-out: inhibitory concentration 50% for colony formation (IC50)): 41 µg/mL (≈ 74.4 µM)
